Test results published in patent US8772445B2, “Production and use of antitumoral cyclodepsipeptides” (Helmholtz-Zentrum Fuer Ozeanforschung Kiel (Geomar), priority 2008, dated 2014).

Experiments:
Assay in all cases: crystal violet assay, antiproliferative effect against tumor cells
Type in all cases: cell-based
[1] = system: pancreatic tumor cell line Colo357; details: for inhibition at 1 µg/mL: Homo sapiens, Colo357, at 1 μg/mL, on average
Protocol: (§1) 4) Determination of the Antiproliferative Effect Against Tumor Cells
(§2) The substances Scopularid A and Scopularid B have shown significant inhibitory action against tumor cell lines, in particular pancreatic tumor cell lines Colo357 and Panc89 and also intestinal tumor cell lines HT29 (on average an inhibition between 25-50% at 1 μg/mL). This activity was determined using the crystal violet assay (Siegmund, D. et al. “Death receptor-induced signalling pathways are differentially regulated by gamma interferon upstream of caspase 8 processing.” Mol. Cell. Biol. 2005; 25: 6363-6379).

[2] = system: pancreatic tumor cell line Panc89; details: Panc89, at 1 μg/mL, on average
Protocol: as §1, §2

[3] = system: intestinal tumor cell line HT29; details: Homo sapiens, HT-29; HT29, at 1 μg/mL, on average
Protocol: as §1, §2

Question: With `CCCCCCC(C)C1CC(=O)NCC(=O)N[C@@H](C(C)C)C(=O)N[C@H](CC(C)C)C(=O)N[C@@H](C)C(=O)N[C@@H](Cc2ccccc2)C(=O)O1` (stereo partly shown) [Scopularid A] as the compound, how does the inhibition at 1 µg/mL [1] read?
Answer: Its inhibition at 1 µg/mL is 25 to 50%.

Question: And the inhibition at 1 µg/mL [2]?
Answer: Its inhibition at 1 µg/mL is 25 to 50%.

Question: And the inhibition at 1 µg/mL [3]?
Answer: The inhibition at 1 µg/mL was 25 to 50%.

Question: For `CCCCC(C)C1CC(=O)NCC(=O)N[C@@H](C(C)C)C(=O)N[C@H](CC(C)C)C(=O)N[C@@H](C)C(=O)N[C@@H](Cc2ccccc2)C(=O)O1` (stereo partly shown) [Scopularid B], which inhibition at 1 µg/mL [1] is on record?
Answer: The inhibition at 1 µg/mL was 25 to 50%.

Question: What about the “antiproliferative effect against tumor cells (in words)” value ([1]; tumor cell lines, in particular Colo357) of the same compound?
Answer: The value was “significant inhibitive effect”.

Question: And the inhibition at 1 µg/mL [2]?
Answer: The inhibition at 1 µg/mL was 25 to 50%.

Question: What about the inhibition at 1 µg/mL [3] of the same compound?
Answer: Its inhibition at 1 µg/mL is 25 to 50%.
